Assay results from patent publication US9981920B2, “Inhibitors of histone deacetylase” (Rodin Therapeutics, Inc., priority 2014, dated 2018).

target: T1, HDAC2 (Homo sapiens, UniProt Q92769); test: Reporter displacement assay (HDAC2 Kd); type: binding; settings: HDAC2 with C-terminal HIS-Tag 20 nM, 180 nM reporter probe, read after 4 h; Kd by Cheng Prusoff from probe displacement
T1 construct: purchased Proteros
Experimental: HDAC2 containing a C-terminal HIS-Tag (Proteros) and fluorescently-labeled anti-HIS-antibody are diluted in one vial in assay buffer 50 mM Tris, pH 8.0, 1 mM DTT, 150 mM NaCl, and 0.01% Tween20. Components are pre-incubated for 30 min, then a small volume of reporter probe (Proteros) is added from a highly concentrated stock and incubation is continued for another 30 min. Final concentrations after adding the reporter probe amount to 20 nM HDAC2, 4 nM antibody, and 180 nM probe.
Ten μl/well of pre-formed complex are transferred into 384 well assay plates (Corning). Compounds to be profiled are serially diluted from 1×10^1-5.7×10^−5 mM in DMSO and 60 nl are added to assay plates by pintool transfer (CybiWell, Cybio). Fluorescence intensity signal is read after 4 h in a Pherastar FS (BMG Labtech) at 337/665 nm.
For Kd determination, percent probe displacement values are calculated for each compound concentration and plotted against the compound concentration. IC50-like values (corresponding to 50% probe displacement) are calculated using standard fitting algorithms. Since the reporter probe is used at a concentration reflecting its own Kd value, compound Kd values can be calculated according to the Cheng Prusoff equation.
In the table, “A” indicates a Kd value of less than 0.1 μM; “B” a Kd value of between 0.1 μM and 1.0 μM; “C” a Kd value of greater than 1.0 μM and less than or equal to 10.0 μM; and “D” a Kd value of greater than 10.0 μM.

T1 sequence (Q92769 whole entry): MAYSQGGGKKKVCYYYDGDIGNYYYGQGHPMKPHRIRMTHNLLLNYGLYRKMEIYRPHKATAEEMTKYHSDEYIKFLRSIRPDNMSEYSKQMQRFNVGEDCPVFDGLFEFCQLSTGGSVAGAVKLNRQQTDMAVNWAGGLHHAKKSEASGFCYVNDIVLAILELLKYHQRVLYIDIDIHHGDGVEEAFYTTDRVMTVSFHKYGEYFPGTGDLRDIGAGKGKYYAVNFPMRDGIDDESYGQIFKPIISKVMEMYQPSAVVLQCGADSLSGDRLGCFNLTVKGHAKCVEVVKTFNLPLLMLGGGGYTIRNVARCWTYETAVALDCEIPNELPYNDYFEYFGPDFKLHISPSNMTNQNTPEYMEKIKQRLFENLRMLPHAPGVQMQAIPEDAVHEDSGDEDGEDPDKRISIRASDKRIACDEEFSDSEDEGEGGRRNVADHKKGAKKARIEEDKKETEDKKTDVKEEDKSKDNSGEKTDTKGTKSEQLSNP

Row | Kd [nM] | SMILES
1 | < 100 | Cc1ccc(C(=O)CSc2nc(O)cc(=O)[nH]2)cc1 [Compound 107]
2 | 100 to 1000 | O=C(CSc1nc(O)c(Cc2ccccc2)c(=O)[nH]1)c1ccccc1 [Compound 111]
3 | 100 to 1000 | C=CCn1c(SCC(O)c2ccc(C)cc2)nc(O)cc1=O (stereo not shown) [Compound 108]
4 | < 100 | O=C(CSc1nc(O)c(-c2ccccc2)c(=O)[nH]1)c1ccc(NC(=O)c2ccccc2)cc1 [Compound 125]
5 | 100 to 1000 | CC(=O)Nc1ccc(C(=O)CSc2nc3ccccc3c(=O)[nH]2)cc1 [Compound 124]
6 | 100 to 1000 | CC(C)(C)OC(=O)Nc1ccc(C(=O)CSc2nc(O)cc(=O)[nH]2)cc1 [Compound 135]
7 | < 100 | Cc1ccc(C(=O)CSc2nc(O)c(-c3ccccc3)c(=O)[nH]2)cc1 [Compound 110]
8 | < 100 | CCc1c(O)nc(SCC(=O)c2ccc(OC)cc2)[nH]c1=O [Compound 103]
9 | < 100 | CCn1c(SCC(=O)c2ccccc2)nc(O)cc1=O [Compound 102]
10 | 100 to 1000 | Cc1ccc(C(=O)CSc2nc(O)cc(=O)n2C(C)C)cc1 [Compound 113]
11 | 1000 to 10000 | Cc1ccc(C(=O)CSc2nc(O)c3ccccc3n2)cc1 [Compound 100]
12 | 100 to 1000 | Nc1ccc(C(=O)CSc2nc(O)cc(=O)[nH]2)cc1 [Compound 127]
13 | 100 to 1000 | Cn1c(SCC(=O)c2cccc(Cl)c2)nc(O)cc1=O [Compound 144]
14 | 100 to 1000 | CC(C)(C)OC(=O)Nc1ccc(C(=O)CSc2nc(O)c(-c3ccccc3)c(=O)[nH]2)cc1 [Compound 126]
15 | 1000 to 10000 | CCc1ccc(C(=O)CSc2nc(C)cc(=O)[nH]2)cc1 [Compound 105]
16 | 100 to 1000 | O=C(CSc1nc(O)cc(=O)[nH]1)c1ccc2[nH]cnc2c1 [Compound 138]
17 | 1000 to 10000 | CC(=O)Nc1ccc(/C(CSc2nc(O)cc(=O)[nH]2)=N\O)cc1 [Compound 114]
18 | < 100 | CC(=O)Nc1ccc(C(=O)CSc2nc(O)cc(=O)n2C(C)C)cc1 [Compound 118]
19 | 100 to 1000 | Nc1ccc(C(=O)CSc2nc(O)c(-c3ccccc3)c(=O)[nH]2)cc1 [Compound 122]
20 | 100 to 1000 | Cn1c(SCC(=O)c2ccc(F)cc2)nc(O)cc1=O [Compound 141]
21 | 100 to 1000 | O=C(CSc1nc(O)cc(=O)[nH]1)c1ccc(NC(=O)c2ccccc2)cc1 [Compound 130]
22 | 100 to 1000 | CN(C)c1ccc(C(=O)CSc2nc(O)cc(=O)[nH]2)cc1 [Compound 134]
23 | 100 to 1000 | Cc1ccc(C(=O)CSc2nc(C)cc(=O)[nH]2)cc1 [Compound 104]

Row | Kd [nM] | SMILES
24 | > 10000 | Cc1ccc(C(=O)COc2nc(C)cc(=O)[nH]2)cc1 [Compound 109]
25 | < 100 | C=CCn1c(SCC(=O)c2ccc(C)cc2)nc(O)cc1=O [Compound 101]
26 | 100 to 1000 | CC(=O)Nc1ccc(C(=O)CSc2nc(O)cc(=O)n2C2CC2)cc1 [Compound 136]
27 | < 100 | CC(=O)Nc1ccc(C(=O)CSc2nc(O)cc(=O)[nH]2)cc1 [Compound 106]
28 | 100 to 1000 | COc1ccc(C(=O)CSc2nc(O)cc(=O)[nH]2)cc1 [Compound 120]
29 | < 100 | CC(=O)Nc1ccc(C(=O)CSc2nc(O)cc(=O)n2C2CCCC2)cc1 [Compound 131]
30 | 100 to 1000 | COc1ccc(C(=O)CSc2nc(O)c(-c3ccccc3)c(=O)[nH]2)cc1 [Compound 121]
31 | < 100 | CC(C)C(=O)Nc1ccc(C(=O)CSc2nc(O)cc(=O)[nH]2)cc1 [Compound 129]
32 | 100 to 1000 | CCn1c(SCC(=O)c2ccc(C)cc2)nc(O)cc1=O [Compound 115]
33 | < 100 | CC(=O)Nc1ccc(C(=O)CSc2nc(O)c(C3CCCC3)c(=O)[nH]2)cc1 [Compound 123]
34 | < 100 | CC(=O)Nc1ccc(C(=O)CSc2nc(O)cc(=O)n2C)cc1 [Compound 116]
35 | 100 to 1000 | Cc1cccc(C(=O)CSc2nc(O)cc(=O)n2C)c1 [Compound 139]
36 | 100 to 1000 | Cc1ccc(C(=O)CSc2nc(O)cc(=O)n2C)cc1 [Compound 112]
37 | 100 to 1000 | Cn1c(SCC(=O)c2ccccc2)nc(O)c(-c2ccccc2)c1=O [Compound 140]
38 | 100 to 1000 | CC(=O)Nc1ccc(C(=O)CSc2nc(O)cc(=O)n2-c2ccccc2)cc1 [Compound 132]
39 | < 100 | O=C(CSc1nc(O)cc(=O)[nH]1)c1ccc(NC(=O)C(F)(F)F)cc1 [Compound 128]
40 | < 100 | CC(=O)Nc1ccc(C(=O)CSc2nc(O)c(-c3ccccc3)c(=O)[nH]2)cc1 [Compound 119]
41 | < 100 | CC(=O)N(C)c1ccc(C(=O)CSc2nc(O)cc(=O)[nH]2)cc1 [Compound 133]
42 | 100 to 1000 | Cc1ccc(C(=O)CSc2nc(=O)c3ccccc3n2C)cc1 [Compound 145]
43 | 100 to 1000 | Cn1c(SCC(=O)c2ccc(Cl)cc2)nc(O)cc1=O [Compound 143]
44 | < 100 | CCn1c(SCC(=O)c2ccc(NC(C)=O)cc2)nc(O)cc1=O [Compound 117]
45 | < 100 | O=C(CSc1nc(O)cc(=O)[nH]1)c1ccc(N2CCCC2=O)cc1 [Compound 137]
46 | < 100 | Cn1c(SCC(=O)c2cccc(F)c2)nc(O)cc1=O [Compound 142]
